# Values quoted from earlier work as cited in patent publication US20250114367A1, “METHOD OF TREATING HAIR LOSS DISORDERS” (Sun Pharmaceutical Industries, Inc., priority 2023, published 2025).
# System: subjects with AA
# Conditions: ritlecitinib 50 mg; up to 48 weeks; FIG. 13C; cited from earlier work
smiles,measurement,value
C=CC(=O)N1C[C@H](Nc2ncnc3[nH]ccc23)CC[C@@H]1C [ritlecitinib],proportion of participants achieving SALT ≤20,≤ 50%
